| SMILES | melting point |
| --- | --- |
| COc1ccc(Nc2ccc(-c3ccnc(Nc4cc(OC)c(OC)c(OC)c4)n3)cn2)cc1 | 209 to 210 °C |
| CC(=O)OC1NC(=O)C2=C1c1ccc(Cl)cc1C(c1ccccc1Cl)=NC2 (stereo unspecified) | 219 to 221 °C |
| CC1CN(C2=Nc3ccccc3Oc3ccccc32)CC(C)N1 (stereo unspecified) | 112 to 114 °C |
| COc1ccc(SSC)cc1 | 98 to 100 °C |
| CC1Cc2cc3c(cc2C(c2ccc([N+](=O)[O-])cc2)=NN1c1nc(=O)n(C)s1)OCO3 (stereo unspecified) | 177 to 180 °C |
| c1ccc2c(c1)NC1CCCc3onc-2c31 (stereo unspecified) | 152 to 154 °C |
| CCOC(=O)C(=CNc1cnsn1)C(=O)c1cc(F)c(F)c(F)c1F | 81 to 83 °C |
| COc1ccc2c(c1)nnc1cc(OC)ccc12 | 200 to 202 °C |
| COC(=O)c1ccccc1SSc1ccccc1C(=O)Nc1ccc(S(N)(=O)=O)cc1 | 288 to 290 °C |
| Cc1cc(Cl)ccc1Oc1ccc(NC(=O)N2CCc3ccccc3CC2)cn1 | 151 to 153 °C |
| O=C1C2Cc3c(ncn3Cc3ccccc3)CN2C(=S)N1c1ccccc1 (stereo unspecified) | 224 to 226 °C |
| CCCOC(=O)C1=C(N)NC(C)=C(C(=O)OCC)C1c1ccccc1C#N (stereo unspecified) | 182 °C |
| COc1ccc(/C=N/N2C=COC=C2)cc1OC1CCCC1 | 108 to 109 °C |
| Cc1c(Br)c2c(c(C)c1NC(=O)OC(C)(C)C)C(O)C(C)(C)O2 (stereo unspecified) | 187 to 188 °C |
| CC(C)OC(=O)c1cc(OC(C)C)ccc1[N+](=O)[O-] | 45 to 50 °C |
| Cc1ccccc1SN(C)C(=O)Oc1cccc2c1OC(C)(C)C2 | 78 °C |
| OC(COc1cccc2[nH]nnc12)CN1CCC(COc2ccccc2)CC1 (stereo unspecified) | 187 to 189 °C |
| CCOC(=O)C#CCOCC1=C(C(=O)OCC)C(c2cccc(Cl)c2Cl)C(C(=O)OC)=C(C)N1 (stereo unspecified) | 123 to 125 °C |
| O=C(O)CCc1c(C(=O)O)[nH]c2cc(-c3ccccc3)cc(-c3ccccc3)c12 | 243 to 245 °C |
| COC(=O)C(C)c1ccc2cc(OCc3ccc4ccccc4n3)ccc2c1 (stereo unspecified) | 91 to 93 °C |
| COc1cc(C(=O)c2ccccc2N)ccn1 | 82 to 86 °C |
| O=C(O)COc1ccc2cc(-c3oc4ccccc4c3-c3ccccc3)ccc2c1-c1ccccc1 | 202 to 203 °C |
| Cc1ccc(-c2nn(-c3ccccc3)c(N)c2C(N)=O)cc1 | 186 to 187 °C |
| Cc1c([N+](=O)[O-])cc(S(F)(F)(F)(F)F)cc1[N+](=O)[O-] | 108 to 109 °C |
| CC(C)CC(NC(=O)Cc1ccc(NC(=O)Nc2ccccc2)cc1)c1ncc(CCC(=O)O)s1 (stereo unspecified) | 146 to 148 °C |
| OC1CSC(Oc2cccnc2-c2ccc(OC(F)(F)F)cc2)C(O)C1O (stereo unspecified) | 114 to 119 °C |

| SMILES | melting point |
| --- | --- |
| O=C(/C=C/c1ccc(O)cc1Cl)CC(=O)/C=C/c1ccc(O)cc1Cl | 248 to 254 °C |
| Cc1cccc(C)c1CCC(CCc1c[nH]cn1)CCc1c(C)cccc1C | 147 to 150 °C |
| O=[N+]([O-])c1ccc(CCNCCc2ccc([N+](=O)[O-])cc2)cc1 | 86 to 91 °C |
| COC(=O)c1nc(-c2ccc(O)nc2)cc(N)c1Cl | 251 to 252 °C |
| CCCCn1nc(-c2ccc(F)cc2)c(-c2ccc(S(C)(=O)=O)cc2)cc1=O | 111 to 113 °C |
| COc1cc([N+](=O)[O-])ccc1N1C(=O)C(=O)N(c2cccc(Cl)c2)C1=O | 176 to 178 °C |
| CCCCCCC(=O)c1ccc2cc(OC)c(OC)cc2c1 | 77 to 78 °C |
| O=C(C1CCc2nc[nH]c2C1)N1CCc2ccccc21 (stereo unspecified) | 175 to 178 °C |
| CCCS(=O)(=O)Nc1nc(CN2CCN(C(c3ccccc3)c3ccccc3)CC2)cs1 | 165 to 167 °C |
| CS(=O)(=O)Nc1cc(C(=O)C=O)ccc1OCc1ccccc1 | 125 to 128 °C |
| CCCCCCCCCCCCCCCCCCOCCSCCO | 58 to 59 °C |
| CC(=O)Oc1ccc(-n2nc(C(F)(F)F)cc2-c2ccc(S(C)(=O)=O)cc2)cc1 | 142 to 145 °C |
| COC(=O)CCCCN(CCc1c[nH]c2ccccc12)CC(C)C | 103 to 104 °C |
| NN1CCNC1=C[N+](=O)[O-] | 159 to 160 °C |
| Cc1cc(N2CCN(CC(=O)c3ccc(NS(C)(=O)=O)cc3)CC2)ccn1 | 93 to 94 °C |
| Cc1cc([N+](=O)[O-])c(NC(C)C)c([N+](=O)[O-])c1C(C)C | 54 to 55 °C |
| CC1CC(=O)c2c(SCc3ccccc3)ccc(-c3ccccn3)c2C1 (stereo unspecified) | 163 to 165 °C |
| CC1(C)CCC(C)(C)c2cc(C(=O)Nc3ccc(I)cc3)ccc21 | 224 °C |
| O=c1c(-c2ccccc2)nc2ccccc2n1CC(F)F | 85 to 88 °C |
| Cc1cncn1CC(O)c1ccccc1 (stereo unspecified) | 193 °C |
| C#CCN(C(=O)C1CC1)c1cccc(-c2ccnc3c(C(=O)c4cccs4)cnn23)c1 | 221 to 223 °C |
| Clc1cccc2c(C3=CCNCC3)c[nH]c12 | 197 to 201 °C |
| COc1cc(CCCN(C)Cc2ccc(OC)c(OC)c2)ccc1NC(=O)c1cccc2c(=O)c3cccc(C)c3[nH]c12 | 111 °C |
| CCCCCCCCN1C=C(C)C(=c2c(C)cc(=CC=C3C=C(C(C)(C)C)C(=O)C(C(C)(C)C)=C3)cc2C)C(C)=C1 | > 280 °C |
| CS(=O)(=O)c1cc2c(c(C(=O)O)c1)OCCO2 | 247 to 249 °C |
| CSc1nc2[nH]c3c(c(=O)n2n1)SCCC3 | 314 to 318 °C |

| SMILES | melting point |
| --- | --- |
| COC(=O)C[C@@H](CI)O[Si](c1ccccc1)(c1ccccc1)C(C)(C)C | 84 to 88 °C |
| COc1ccc2c(c1)NC(=O)C(C(=O)N(C)C)C2 (stereo unspecified) | 209 to 210 °C |
| COC(=O)C1=CC(NC(=O)OC(C)(C)C)CO1 (stereo unspecified) | 94 to 96 °C |
| COC(=O)C1CCc2cc(F)cc(C(F)(F)F)c2O1 (stereo unspecified) | 71.8 °C |
| O=C(O)COc1ccc(C(=O)Nc2cccc(Cl)c2Cl)cc1 | 153 to 157 °C |
| COc1cccc(Sc2cccc(F)c2C#N)c1 | 99 to 100 °C |
| CCc1ccc(C(O)CNC(=C[N+](=O)[O-])NCCSCc2cc(C)c(CN(C)C)s2)cc1 (stereo unspecified) | 112 to 115 °C |
| C=C(CC)C(=O)c1ccc(OC2(C(=O)O)CCC2)c(Cl)c1Cl | 120 °C |
| COc1ccc(C(=O)n2c(C(=O)O)cc3cc(OC)ccc32)cc1 | 185 to 187 °C |
| CCCCCCCCCCCCCCCC(=O)NCCCN1CCCCC1C (stereo unspecified) | 48 to 50 °C |
| COCCN1CCN(CCCOc2ccc3nc(C#N)nc(NCC(C)(C)C)c3c2)CC1 | 92 to 94 °C |
| NC[C@@H]1C(=O)N[C@H]1SC(c1ccccc1)(c1ccccc1)c1ccccc1 (relative stereo) | 139 °C |
| CC(C)n1cc(-c2nc(C(N)=O)c(N)nc2-c2ccccc2OC(F)(F)F)ccc1=O | 206 °C |
| COc1ccc(S(N)(=O)=O)c(-c2cccc3c2Nc2ccc(F)cc2S3)c1 | 166 to 168 °C |
| CCCN=C(NCCC)c1cc(Cl)ccc1[N+](=O)[O-] | 63 to 64 °C |
| Cc1c(-c2ccncc2)[nH]c(-c2ccncc2)c1S(C)(=O)=O | 232 to 234 °C |
| O=C1Nc2ccc(F)cc2C12COc1cc3c(cc12)CCO3 (stereo unspecified) | 257 to 259 °C |
| Cn1nnnc1-n1cc(C(=O)O)c(=O)c2cc(F)c(Cl)nc21 | 213 to 220 °C |
| CN(C)c1ncc(-c2cccnc2)cn1 | 295 °C |
| O=P(O)(O)C(O)(Cc1ccc(Cl)cc1)P(=O)(O)O | 219 °C |
| O=C1NC(=O)C2(CCOc3ccc(F)cc32)N1 (stereo unspecified) | 239 to 241 °C |
| CC(SC1COC(c2ccc(C(=O)Nc3ccc(C#N)cc3F)cc2)OC1)C(O)(Cn1cncn1)c1ccc(F)cc1F (stereo unspecified) | 136 °C |
| Cc1cc(=O)n2c3c(cc(C(O)(C(F)(F)F)C(F)(F)F)cc13)OC2 | 262 to 264 °C |
| Cc1ccc(-n2c3ccc(C=O)cc3c3cc(C=O)ccc32)cc1 | 229 to 230 °C |
| CN(C)C(=O)Cc1ccccc1Nc1ccnc2cc(C(F)(F)F)ccc12 | 172 to 173 °C |
| O=C(CCC(O)=NO)c1cccs1 | 133 to 138 °C |

| SMILES | melting point |
| --- | --- |
| CCCc1c(OCCCOc2cc(OCC(=O)O)ccc2C(C)=O)ccc(C(C)=O)c1O | 151 to 155 °C |
| CS(=O)(=O)Nc1cc2occ(C#N)c(=O)c2cc1Oc1ccccc1 | 220 °C |
| CC(=O)OCC1CCn2c(c(C3=C(c4ccccc4Cl)C(=O)OC3=O)c3ccccc32)C1 (stereo unspecified) | 168 to 171 °C |
| CCN(CC)c1ccc(-c2cc(-c3ccc(C(=O)O)cc3)ccc2OCCO)cc1C(C)(C)C | 216 °C |
| CCCc1c(OCCCSc2ccc(C(=O)COC(C)=O)cn2)ccc(C(C)=O)c1O | 93 to 95 °C |
| CCN(CC)CCOc1ccc(CCNC(=O)c2ccc(-c3ccc(Cl)cc3)cc2)cc1 | 178 to 179 °C |
| CC(C)(C)Nc1c(NCc2ccccc2C(F)(F)F)c(=O)c1=O | 237 to 239 °C |
| Nc1ccc(C#Cc2ccc(N3CCN4CCC3CC4)nn2)cc1 | 182 to 183 °C |
| CCCOc1ccccc1-c1nc(NC(=O)CCC)cc(=O)[nH]1 | 177 to 178 °C |
| OCCOc1cc2ccccc2cc1OCCOc1ccccc1 | 119 to 120 °C |
| O=C(Cc1ccnc(Br)c1)c1ccccn1 | 111 °C |
| CCCCCCCCOC(=O)CS(=O)(=O)Nc1c(C(C)C)cccc1C(C)C | 56 to 58 °C |
| O=C(O)c1cnn2c(C(F)F)cc(-c3ccc(Cl)cc3)nc12 | 232 °C |
| CCCCCCc1cc2c(cc1O)C(=O)CCC2 | 125 °C |
| ClC1=NC(Cl)(C(Cl)(Cl)Cl)N=C1Cl | 66 to 68 °C |
| O=C(O)CCCc1cc2nc(Cl)ccc2n1S(=O)(=O)c1ccc2oncc2c1 | 226 °C |
| CCC(CC)n1nnc2cc(C(F)(F)F)cc([N+](=O)[O-])c21 | 42 to 45 °C |
| COC(CNC(=S)N1CCN(c2ccc(O)cc2)CC1)OC | 161 °C |
| O=C(CC1c2ccccc2CCc2ccccc21)Nc1ccc(C(=O)O)cc1 | 248 to 250 °C |
| O=c1ccc2c(=O)c3ccccc3ccc2[nH]1 | 320 °C |
| Cn1c(=O)c(=O)[nH]c2cc([N+](=O)[O-])ccc21 | 356 °C |
| Cc1ccc2ccc3ccccc3c(=O)c2c1 | 81 to 83 °C |
| CC(C)N1CCc2ccc(C(=O)CCC(=O)N3CCC(c4ccc(Cl)cc4)CC3)cc2C1 | 113 to 115 °C |

— a melting point compilation (Tetko et al.; mined from patent text by program, amines drawn as free bases though some values may be those of a salt)
